Legend:
blackgrass [1] = test: Test Example 5: herbicidal effect by foliage application, plastic box (Table 20, symbol J); assay type: in vivo, blackgrass (Alopecurus myosuroides); details: foliage application, three weeks after application
In short: (§1)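 Foliar spray test: emulsion formulation diluted in water to a set application rate, sprayed onto 14-day-old plants raised in diluvial soil at 25° C to 30° C under glass. Both herbicidal effect and crop effect rated visually three weeks later.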

redroot pigweed [2] = test: Test Example 4: herbicidal effect by soil treatment (Table 19, symbol N); assay type: in vivo, redroot pigweed (Amaranthus retroflexus); details: amount of applied herbicide 320 g/ha
In short: (§2)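 Herbicidal effect was rated 3 weeks after treatment, using the scoring criteria of an earlier test. The compound, formulated as an emulsion and diluted in water to a set herbicide amount, had been sprayed uniformly on soil over freshly sown seeds. Growth took place in a greenhouse at 25° C. to 30° C.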

windgrass [3] = test: Test Example 5: herbicidal effect by foliage application, plastic box (Table 20, symbol L); assay type: in vivo, windgrass (Apera spica-venti); details: foliage application, three weeks after application
In short: as §1

chickweed [4] = test: Test Example 4: herbicidal effect by soil treatment (Table 19, symbol P); assay type: in vivo, common chickweed (Stellaria media); details: amount of applied herbicide 320 g/ha
In short: as §2

southern crabgrass [5] = test: Test Example 5: herbicidal effect by foliage application, plastic box (Table 20, symbol F); assay type: in vivo, southern crabgrass (Digitaria ciliaris); details: foliage application, three weeks after application
In short: as §1

green foxtail [6] = test: Test Example 4: herbicidal effect by soil treatment (Table 19, symbol G); assay type: in vivo, green foxtail (Setaria viridis); details: amount of applied herbicide 320 g/ha
In short: as §2

lambsquarters [7] = test: Test Example 4: herbicidal effect by soil treatment (Table 19, symbol O); assay type: in vivo, lambsquarters (Chenopodium album); details: amount of applied herbicide 320 g/ha
In short: as §2

blackgrass [8] = test: Test Example 4: herbicidal effect by soil treatment (Table 19, symbol J); assay type: in vivo, blackgrass (Alopecurus myosuroides); details: amount of applied herbicide 320 g/ha
In short: as §2

redroot pigweed [9] = test: Test Example 5: herbicidal effect by foliage application, plastic box (Table 20, symbol N); assay type: in vivo, redroot pigweed (Amaranthus retroflexus); details: foliage application, three weeks after application
In short: as §1

rice flat sedge = test: Test Example 3: herbicidal effect by foliage application, Wagner pot (Table 18, symbol E); assay type: in vivo, rice flat sedge (Cyperus iria); details: 320 g/ha
In short: (§3)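 Plants were sown in alluvial soil held under 0.1–0.5 cm standing water and grown 14 days in a greenhouse at 25–30 °C. An emulsifiable formulation, water-diluted to the set dose, was then sprayed onto the foliage, and effects were scored three weeks later using previously defined criteria.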

persian speedwell [10] = test: Test Example 4: herbicidal effect by soil treatment (Table 19, symbol R); assay type: in vivo, Persian speedwell (Veronica persica); details: amount of applied herbicide 320 g/ha
In short: as §2

Italian ryegrass [11] = test: Test Example 4: herbicidal effect by soil treatment (Table 19, symbol K); assay type: in vivo, Italian ryegrass (Lolium multiflorum); details: amount of applied herbicide 320 g/ha
In short: as §2

wild oat [12] = test: Test Example 4: herbicidal effect by soil treatment (Table 19, symbol I); assay type: in vivo, wild oat (Avena fatua); details: amount of applied herbicide 320 g/ha
In short: as §2

lambsquarters [13] = test: Test Example 5: herbicidal effect by foliage application, plastic box (Table 20, symbol O); assay type: in vivo, lambsquarters (Chenopodium album); details: foliage application, three weeks after application
In short: as §1

Chinese sprangletop = test: Test Example 3: herbicidal effect by foliage application, Wagner pot (Table 18, symbol D); assay type: in vivo, chinese sprangletop (Leptochloa chinensis); details: 320 g/ha
In short: as §3

chickweed [14] = test: Test Example 5: herbicidal effect by foliage application, plastic box (Table 20, symbol P); assay type: in vivo, common chickweed (Stellaria media); details: foliage application, three weeks after application
In short: as §1

green foxtail [15] = test: Test Example 5: herbicidal effect by foliage application, plastic box (Table 20, symbol G); assay type: in vivo, green foxtail (Setaria viridis); details: foliage application, three weeks after application
In short: as §1

southern crabgrass [16] = test: Test Example 4: herbicidal effect by soil treatment (Table 19, symbol F); assay type: in vivo, southern crabgrass (Digitaria ciliaris); details: amount of applied herbicide 320 g/ha
In short: as §2

velvetleaf [17] = test: Test Example 4: herbicidal effect by soil treatment (Table 19, symbol M); assay type: in vivo, velvetleaf (Abutilon theophrasti); details: amount of applied herbicide 320 g/ha
In short: as §2

windgrass [18] = test: Test Example 4: herbicidal effect by soil treatment (Table 19, symbol L); assay type: in vivo, windgrass (Apera spica-venti); details: amount of applied herbicide 320 g/ha
In short: as §2

wild oat [19] = test: Test Example 5: herbicidal effect by foliage application, plastic box (Table 20, symbol I); assay type: in vivo, wild oat (Avena fatua); details: foliage application, three weeks after application
In short: as §1

barnyard grass [20] = test: Test Example 5: herbicidal effect by foliage application, plastic box (Table 20, symbol H); assay type: in vivo, barnyard grass (Echinochloa crus-galli); details: foliage application, three weeks after application
In short: as §1

Italian ryegrass [21] = test: Test Example 5: herbicidal effect by foliage application, plastic box (Table 20, symbol K); assay type: in vivo, Italian ryegrass (Lolium multiflorum); details: foliage application, three weeks after application
In short: as §1

velvetleaf [22] = test: Test Example 5: herbicidal effect by foliage application, plastic box (Table 20, symbol M); assay type: in vivo, velvetleaf (Abutilon theophrasti); details: foliage application, three weeks after application
In short: as §1

barnyard grass [23] = test: Test Example 3: herbicidal effect by foliage application, Wagner pot (Table 18, symbol H); assay type: in vivo, barnyard grass (Echinochloa crus-galli); details: 320 g/ha
In short: as §3

barnyard grass [24] = test: Test Example 4: herbicidal effect by soil treatment (Table 19, symbol H); assay type: in vivo, barnyard grass (Echinochloa crus-galli); details: amount of applied herbicide 320 g/ha
In short: as §2

persian speedwell [25] = test: Test Example 5: herbicidal effect by foliage application, plastic box (Table 20, symbol R); assay type: in vivo, Persian speedwell (Veronica persica); details: foliage application, three weeks after application
In short: as §1

| SMILES | herbicidal effect rating, N: redroot pigweed (redroot pigweed [2]) | herbicidal effect rating, P: chickweed (chickweed [4]) | herbicidal effect rating, G: green foxtail (green foxtail [6]) | herbicidal effect rating, O: lambsquarters (lambsquarters [7]) | herbicidal effect rating, J: blackgrass (blackgrass [8]) | herbicidal effect on E (rice flat sedge), rating 0-5 (rice flat sedge) | herbicidal effect rating, R: persian speedwell (persian speedwell [10]) | herbicidal effect rating, K: Italian ryegrass (Italian ryegrass [11]) | herbicidal effect rating, I: wild oat (wild oat [12]) | herbicidal effect on D (Chinese sprangletop), rating 0-5 (Chinese sprangletop) | herbicidal effect rating, F: southern crabgrass (southern crabgrass [16]) | herbicidal effect rating, M: velvetleaf (velvetleaf [17]) | herbicidal effect rating, L: windgrass (windgrass [18]) | herbicidal effect on H (barnyard grass), rating 0-5 (barnyard grass [23]) | herbicidal effect rating, H: barnyard grass (barnyard grass [24]) | other results |
| --- | --- | --- | --- | --- | --- | --- | --- | --- | --- | --- | --- | --- | --- | --- | --- | --- |
| CCCC(=O)Oc1c(C)nn(C)c(=O)c1-c1c(-c2ccc(F)cc2OC)sc2ccccc12 [1-056] | 5 (Herbicidal rate of 90% or more (almost completely withered)) | 3 (Herbicidal rate of 40% or more and less than 70%) | 5 (Herbicidal rate of 90% or more (almost completely withered)) | 3 (Herbicidal rate of 40% or more and less than 70%) | 1 (Herbicidal rate of 5% or more and less than 20%) | 5 (Herbicidal rate of 90% or more (almost completely withered)) | 4 (Herbicidal rate of 70% or more and less than 90%) | 0 (Herbicidal rate of 5% or less (almost no effect)) | 3 (Herbicidal rate of 40% or more and less than 70%) | 2 (Herbicidal rate of 20% or more and less than 40%) | 3 (Herbicidal rate of 40% or more and less than 70%) | 0 (Herbicidal rate of 5% or less (almost no effect)) | 5 (Herbicidal rate of 90% or more (almost completely withered)) | 4 (Herbicidal rate of 70% or more and less than 90%) | 3 (Herbicidal rate of 40% or more and less than 70%) | herbicidal effect grade, J: blackgrass (blackgrass [1]; 320 g/ha): 4 (Herbicidal rate of 70% or more and less than 90%); herbicidal effect grade, L: windgrass (windgrass [3]; 320 g/ha): 5 (Herbicidal rate of 90% or more (almost completely withered)); herbicidal effect grade, F: southern crabgrass (southern crabgrass [5]; 320 g/ha): 5 (Herbicidal rate of 90% or more (almost completely withered)); herbicidal effect grade, N: redroot pigweed (redroot pigweed [9]; 320 g/ha): 3 (Herbicidal rate of 40% or more and less than 70%); herbicidal effect grade, O: lambsquarters (lambsquarters [13]; 320 g/ha): 2 (Herbicidal rate of 20% or more and less than 40%); herbicidal effect grade, P: chickweed (chickweed [14]; 320 g/ha): 5 (Herbicidal rate of 90% or more (almost completely withered)); herbicidal effect grade, G: green foxtail (green foxtail [15]; 320 g/ha): 5 (Herbicidal rate of 90% or more (almost completely withered)); herbicidal effect grade, I: wild oat (wild oat [19]; 320 g/ha): 4 (Herbicidal rate of 70% or more and less than 90%); herbicidal effect grade, H: barnyard grass (barnyard grass [20]; 320 g/ha): 4 (Herbicidal rate of 70% or more and less than 90%); herbicidal effect grade, K: Italian ryegrass (Italian ryegrass [21]; 320 g/ha): 1 (Herbicidal rate of 5% or more and less than 20%); herbicidal effect grade, M: velvetleaf (velvetleaf [22]; 320 g/ha): 4 (Herbicidal rate of 70% or more and less than 90%); herbicidal effect grade, R: persian speedwell (persian speedwell [25]; 320 g/ha): 3 (Herbicidal rate of 40% or more and less than 70%) |
| C#CCOc1ccccc1-c1sc2ccccc2c1-c1c(O)c(C)nn(C)c1=O [1-112] | 1 (Herbicidal rate of 5% or more and less than 20%) | 5 (Herbicidal rate of 90% or more (almost completely withered)) | 1 (Herbicidal rate of 5% or more and less than 20%) | 0 (Herbicidal rate of 5% or less (almost no effect)) | 4 (Herbicidal rate of 70% or more and less than 90%) | 3 (Herbicidal rate of 40% or more and less than 70%) | 5 (Herbicidal rate of 90% or more (almost completely withered)) | 0 (Herbicidal rate of 5% or less (almost no effect)) | 0 (Herbicidal rate of 5% or less (almost no effect)) | 3 (Herbicidal rate of 40% or more and less than 70%) | 0 (Herbicidal rate of 5% or less (almost no effect)) | 3 (Herbicidal rate of 40% or more and less than 70%) | 5 (Herbicidal rate of 90% or more (almost completely withered)) | 4 (Herbicidal rate of 70% or more and less than 90%) | 0 (Herbicidal rate of 5% or less (almost no effect)) | J: blackgrass, herbicidal effect (blackgrass [1]; AAH 320 g/ha): 5 (Herbicidal rate of 90% or more (almost completely withered)); L: windgrass, herbicidal effect (windgrass [3]; AAH 320 g/ha): 5 (Herbicidal rate of 90% or more (almost completely withered)); F: southern crabgrass, herbicidal effect (southern crabgrass [5]; AAH 320 g/ha): 5 (Herbicidal rate of 90% or more (almost completely withered)); N: redroot pigweed, herbicidal effect (redroot pigweed [9]; AAH 320 g/ha): 5 (Herbicidal rate of 90% or more (almost completely withered)); O: lambsquarters, herbicidal effect (lambsquarters [13]; AAH 320 g/ha): 1 (Herbicidal rate of 5% or more and less than 20%); P: chickweed, herbicidal effect (chickweed [14]; AAH 320 g/ha): 5 (Herbicidal rate of 90% or more (almost completely withered)); G: green foxtail, herbicidal effect (green foxtail [15]; AAH 320 g/ha): 5 (Herbicidal rate of 90% or more (almost completely withered)); I: wild oat, herbicidal effect (wild oat [19]; AAH 320 g/ha): 5 (Herbicidal rate of 90% or more (almost completely withered)); H: barnyard grass, herbicidal effect (barnyard grass [20]; AAH 320 g/ha): 4 (Herbicidal rate of 70% or more and less than 90%); K: Italian ryegrass, herbicidal effect (Italian ryegrass [21]; AAH 320 g/ha): 3 (Herbicidal rate of 40% or more and less than 70%); M: velvetleaf, herbicidal effect (velvetleaf [22]; AAH 320 g/ha): 4 (Herbicidal rate of 70% or more and less than 90%); R: persian speedwell, herbicidal effect (persian speedwell [25]; AAH 320 g/ha): 5 (Herbicidal rate of 90% or more (almost completely withered)) |
